From patent EP4371976B1, “IONIZABLE LIPIDS AND LIPID NANOPARTICLES CONTAINING THEREOF” (Certest Biotec, S.L., priority 2022, dated 2024)
Values joined by “and” are separate entries in the source; they are usually repeats but may differ in a detail not shown here. Equal values may be shown once.

Columns and labels:
[1] = RNA encapsulation efficiency of LNPs by Quant-IT Ribogreen; type: physicochemical; details: for Encaps. efficiency (%): LNPs with luciferase mRNA, ionizable lipid:non-cationic lipid:sterol:PEG-modified lipid 50:10:38.5:1.5, percentage of RNA entrapped in the LNP
Description: The mRNA aqueous solution was then carefully added to the ethanol solution, and the resulted solution was homogenized by pipetting up and down for 4-5 times. The resulting LNPs were immediately diluted 1:1 with Tris buffer and dialyzed overnight against Tris buffer containing 15% sucrose. The resulting LNP solution was then collected, and the encapsulated mRNA was assessed by Quant-IT® Ribogreen (Invitrogen R11490) following the manufacturer's instructions.
(§1) The LNP solution was then adjusted to a final concentration of mRNA of 100 µg/ml. Size distribution, polydispersity and Z-potential were measured by dynamic light scattering (DLS) using Malvern Zetasizer Advance Lab Blue Label. RNA encapsulation was assessed by Quant-IT® Ribogreen following the manufacturer's instructions.

[2] = Size distribution, polydispersity and Z-potential of LNPs by dynamic light scattering (Malvern Zetasizer); type: physicochemical; details: LNPs, standard formulation 50:10:38.5:1.5; DLS
Description: as §1

[3] = Apparent pKa of LNPs comprising the ionizable lipid (Table 6); details: standard formulation 50:10:38.5:1.5

SMILES: CCCCCCCCCCCCCOC(=O)CCSCCC(NC(=O)C(CCCCCC)CCCCCCCC)C(=O)NCCN1CCOCC1 (stereo not shown) [VC-LC-0392]
- Encaps. efficiency (%) [1]: 40.58%
- P.D.I. [2]: 0.19
- Particle size/ Ø (nm) [2]: 136.1 nm
- Z Potential (± D.E.) [mV] [2]: -11.14 mV
- Apparent pKa [3]: 4.72

SMILES: CCCCCCCC#CCOC(=O)CCSCCC(NC(=O)C(CCCCCC)CCCCCCCC)C(=O)NCCN(CC)CC (stereo not shown) [VC-LC-0488]
- Encaps. efficiency (%) [1]: 62.45%
- P.D.I. [2]: 0.16
- Particle size/ Ø (nm) [2]: 149.1 nm
- Z Potential (± D.E.) [mV] [2]: -4.15 mV
- Apparent pKa [3]: 6.79

SMILES: CCCCCCCCC(CCCCCC)C(=O)NC(CCSCCC(=O)OCCCCCCC)C(=O)NCCCN(CCO)CCO (stereo not shown) [VC-LC-0207]
- Encaps. efficiency (%) [1]: 93.61%
- P.D.I. [2]: 0.2
- Particle size/ Ø (nm) [2]: 185.7 nm
- Z Potential (± D.E.) [mV] [2]: -0.83 mV
- Apparent pKa [3]: 7.18

SMILES: CCCCCCCCC(CCCCCC)C(=O)NC(CCSCCC(=O)OCC(CC)CCCC)C(=O)NCCCn1ccnc1 (stereo not shown) [VC-LC-0259]
- Encaps. efficiency (%) [1]: 41.89%
- P.D.I. [2]: 0.14
- Particle size/ Ø (nm) [2]: 138.8 nm
- Z Potential (± D.E.) [mV] [2]: -8.47 mV
- Apparent pKa [3]: 6.21

SMILES: CCCCCCCC/C=C\CCCCCCCCOC(=O)CCSCCC(NC(=O)C(CCCCCC)CCCCCCCC)C(=O)NC1CCN(C)CC1 (stereo not shown) [VC-LC-0430]
- Encaps. efficiency (%) [1]: 84.48%
- P.D.I. [2]: 0.23
- Particle size/ Ø (nm) [2]: 216.2 nm
- Z Potential (± D.E.) [mV] [2]: 1.65 mV
- Apparent pKa [3]: 7.00

SMILES: CCCCCCCCCCCCC(CCCCCCCCCC)COC(=O)CCSCCC(NC(=O)C(CCCCCC)CCCCCCCC)C(=O)NC1CCN(C)CC1 (stereo not shown) [VC-LC-0428]
- Encaps. efficiency (%) [1]: 65.37%
- P.D.I. [2]: 0.11
- Particle size/ Ø (nm) [2]: 185.3 nm
- Z Potential (± D.E.) [mV] [2]: -8.34 mV
- Apparent pKa [3]: 5.84

SMILES: CCCCCCCC#CCOC(=O)CCSCCC(NC(=O)CCCCCCCCCCCCCCCCC)C(=O)NCCCN1CCOCC1 (stereo not shown) [VC-LC-0390]
- Encaps. efficiency (%) [1]: 83.80%
- P.D.I. [2]: 0.24
- Particle size/ Ø (nm) [2]: 192.8 nm
- Z Potential (± D.E.) [mV] [2]: -1.14 mV
- Apparent pKa [3]: 6.10

SMILES: CCCCCCCCCCCCCOC(=O)CCSCCC(NC(=O)C(CCCCCC)CCCCCCCC)C(=O)NCCCn1ccnc1 (stereo not shown) [VC-LC-0256]
- Encaps. efficiency (%) [1]: 92.30%
- P.D.I. [2]: 0.12
- Particle size/ Ø (nm) [2]: 184.3 nm
- Z Potential (± D.E.) [mV] [2]: -15.91 mV
- Apparent pKa [3]: 5.91

SMILES: CCCCCCCC/C=C\CCCCCCCCOC(=O)CCSCCC(NC(=O)C(CCCCCCCC)CCCCCCCCCC)C(=O)NCCCN1CCOCC1 (stereo not shown) [VC-LC-0587]
- Encaps. efficiency (%) [1]: 38.50%
- P.D.I. [2]: 0.12
- Particle size/ Ø (nm) [2]: 150.3 nm
- Z Potential (± D.E.) [mV] [2]: -6.62 mV
- Apparent pKa [3]: 5.54

SMILES: CCCCCCCCCCC(CCCCCCCC)C(=O)NC(CCSCCC(=O)OCC(CC)CCCC)C(=O)NC1CCN(C)CC1 (stereo not shown) [VC-LC-0559]
- Encaps. efficiency (%) [1]: 65.25%
- P.D.I. [2]: 0.14
- Particle size/ Ø (nm) [2]: 138.8 nm
- Z Potential (± D.E.) [mV] [2]: -5.71 mV
- Apparent pKa [3]: 6.40

SMILES: CCCCCCCCC(CCCCCCCC)OC(=O)C(CCSCCC(=O)OCC(CC)CCCC)C(=O)NCCCn1ccnc1 (stereo not shown) [VC-LC-0365]
- Encaps. efficiency (%) [1]: 66.86%
- P.D.I. [2]: 0.24
- Particle size/ Ø (nm) [2]: 124.1 nm
- Z Potential (± D.E.) [mV] [2]: -17.43 mV
- Apparent pKa [3]: 6.33

SMILES: CCCCCCCCC(CCCCCC)COC(=O)CCSCC(CC(=O)NCCCN1CCOCC1)C(=O)OC(CCCCCCCC)CCCCCCCC (stereo not shown) [VC-LC-0541]
- Encaps. efficiency (%) [1]: 42.80%
- P.D.I. [2]: 0.11
- Particle size/ Ø (nm) [2]: 154.7 nm
- Z Potential (± D.E.) [mV] [2]: -6.83 mV
- Apparent pKa [3]: 6.39

SMILES: CCCCCCCCOC(=O)CCSCCC(NC(=O)C(CCCCCC)CCCCCCCC)C(=O)NCCCN1CCOCC1 (stereo not shown) [VC-LC-0176]
- Encaps. efficiency (%) [1]: 47.36%
- Z Potential (± D.E.) [mV] [2]: -17.58 mV
- Apparent pKa [3]: 5.77

SMILES: CCCCCCCCC(CCCCCC)C(=O)NC(CCSCCC(=O)OCC(CC)CCCC)C(=O)NCC1CCN(C)CC1 (stereo not shown) [VC-LC-0493]
- Encaps. efficiency (%) [1]: 98.56%
- P.D.I. [2]: 0.12
- Particle size/ Ø (nm) [2]: 128.8 nm
- Z Potential (± D.E.) [mV] [2]: -0.57 mV
- Apparent pKa [3]: 6.46

SMILES: CCCCCCCCCCCCCOC(=O)CCSCCC(C(=O)NCCCN1CCOCC1)C(=O)OCC(CCCCCC)CCCCCCCC (stereo not shown) [VC-LC-0605]
- Encaps. efficiency (%) [1]: 52.30%
- P.D.I. [2]: 0.24
- Particle size/ Ø (nm) [2]: 136.3 nm
- Z Potential (± D.E.) [mV] [2]: -11.79 mV
- Apparent pKa [3]: 5.68

SMILES: CCCCCCCC/C=C\CCCCCCCCOC(=O)CCSCCC(NC(=O)C(CCCCCCCC)CCCCCCCCCC)C(=O)NCC1CCN(C)CC1 (stereo not shown) [VC-LC-0523]
- Encaps. efficiency (%) [1]: 95.57%
- P.D.I. [2]: 0.17
- Particle size/ Ø (nm) [2]: 169.3 nm
- Z Potential (± D.E.) [mV] [2]: 5.29 mV
- Apparent pKa [3]: 7.32

SMILES: CCCCCCCCCCC(CCCCCCCC)C(=O)NC(CCSCCC(=O)OCCCCCC)C(=O)NC1CCN(C)CC1 (stereo not shown) [VC-LC-0566]
- Encaps. efficiency (%) [1]: 55.25%
- P.D.I. [2]: 0.13
- Particle size/ Ø (nm) [2]: 149.0 nm
- Z Potential (± D.E.) [mV] [2]: -3.35 mV
- Apparent pKa [3]: 6.57

SMILES: CCCCCCCCC(CCCCCC)C(=O)NC(CCSCCC(=O)OCCCCCC(C)C)C(=O)NCC1CCN(C)CC1 (stereo not shown) [VC-LC-0498]
- Encaps. efficiency (%) [1]: 99.46%
- P.D.I. [2]: 0.15
- Particle size/ Ø (nm) [2]: 152.3 nm
- Z Potential (± D.E.) [mV] [2]: 1.06 mV
- Apparent pKa [3]: 7.47

SMILES: CCCCCCCCCCC(CCCCCCCC)C(=O)NC(CCSCCC(=O)OCCCCCCCC)C(=O)NCC1CCN(C)CC1 (stereo not shown) [VC-LC-0519]
- Encaps. efficiency (%) [1]: 97.15%
- P.D.I. [2]: 0.16
- Particle size/ Ø (nm) [2]: 137.9 nm
- Z Potential (± D.E.) [mV] [2]: -1.93 mV
- Apparent pKa [3]: 6.69

SMILES: CCCCCCCC/C=C\CCCCCCCCOC(=O)CCSCCC(NC(=O)C(CCCCCC)CCCCCCCC)C(=O)NCCN(CC)CC (stereo not shown) [VC-LC-0489]
- Encaps. efficiency (%) [1]: 60.57%
- P.D.I. [2]: 0.13
- Particle size/ Ø (nm) [2]: 143.8 nm
- Z Potential (± D.E.) [mV] [2]: -5.88 mV
- Apparent pKa [3]: 6.03

SMILES: CCCCCCCCCCCCCCCCOC(=O)CCSCCC(C(=O)NC1CCN(C)CC1)C(=O)OC(CCCCCCCC)CCCCCCCC (stereo not shown) [VC-LC-0445]
- Encaps. efficiency (%) [1]: 48.02%
- Z Potential (± D.E.) [mV] [2]: -10.64 mV
- Apparent pKa [3]: 5.82

SMILES: CCCCCCCCCCCCOC(=O)CCSCCC(NC(=O)C(CCCCCC)CCCCCCCC)C(=O)NCC1CCN(C)CC1 (stereo not shown) [VC-LC-0494]
- Encaps. efficiency (%) [1]: 98.99%
- P.D.I. [2]: 0.22
- Particle size/ Ø (nm) [2]: 169.8 nm
- Z Potential (± D.E.) [mV] [2]: 5.52 mV
- Apparent pKa [3]: 6.86

SMILES: CCCCCCCCCCCCCCCCOC(=O)CCSCCC(NC(=O)C(CCCCCC)CCCCCCCC)C(=O)NCCCN1CCCC1 (stereo not shown) [VC-LC-0248]
- Encaps. efficiency (%) [1]: 89.76%
- P.D.I. [2]: 0.35
- Particle size/ Ø (nm) [2]: 248 nm
- Z Potential (± D.E.) [mV] [2]: 4.52 mV
- Apparent pKa [3]: 7.24

SMILES: CCCCCCCCC(CCCCCC)COC(=O)CCSCC(CC(=O)NC1CCN(C)CC1)C(=O)OCC(CCCCCC)CCCCCCCC (stereo not shown) [VC-LC-0525]
- Encaps. efficiency (%) [1]: 59.89%
- Encaps. efficiency ([1]; Table 8, LNP 50:10:38.5:1.5, luciferase mRNA): 59.9% and 95.6%
- P.D.I. [2]: 0.18
- Particle size/ Ø (nm) [2]: 151 nm
- Z Potential (± D.E.) [mV] [2]: -5.11 mV
- Apparent pKa [3]: 6.67

SMILES: CCCCCCCCCCCCC(CCCCCCCCCC)COC(=O)CCSCCC(NC(=O)C(CCCCCC)CCCCCCCC)C(=O)NCCN1CCOCC1 (stereo not shown) [VC-LC-0407]
- Encaps. efficiency (%) [1]: 60.22%
- P.D.I. [2]: 0.1
- Particle size/ Ø (nm) [2]: 167.1 nm
- Z Potential (± D.E.) [mV] [2]: -12.36 mV
- Apparent pKa [3]: 4.66

SMILES: CCCCCCCCOC(=O)CCSCC(CC(=O)NC1CCN(C)CC1)C(=O)OCC(CCCCCC)CCCCCCCC (stereo not shown) [VC-LC-0535]
- Encaps. efficiency (%) [1]: 96.61%
- P.D.I. [2]: 0.11
- Particle size/ Ø (nm) [2]: 144.7 nm
- Z Potential (± D.E.) [mV] [2]: 4.45 mV
- Apparent pKa [3]: 7.87
